Reference: the METLIN SMRT retention time set (Domingo-Almenara et al. 2019)

Test: gradient 5% acetonitrile 3 min, to 50% in 2 min, to 85% in 15 min, held 3 min, 100 µL/min
Details: column: Zorbax Extend-C18 2.1 x 50 mm; eluents: water / acetonitrile, 0.1% formic acid
In short: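 Data were gathered over 3 months by HPLC coupled to a quadrupole time-of-flight mass spectrometer, operated in positive and negative ionization mode. Mixtures of ~100 pure standards ran on a Zorbax Extend-C18 column (2.1 × 50 mm, 1.8 μm) at 100 μL/min, with water and acetonitrile each containing 0.1% formic acid and dead and dwell volumes of 40 μL and 900 μL. Retention time was read from adduct peaks picked by computer and checked manually.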

SMILES	RP-LC retention time
O=C(Nc1ccc2c(c1)OCO2)C1CCCN(c2ncc(-c3ccc(F)cc3)cn2)C1 (stereo unspecified)	1060 s
CCN1CCN(c2ccc(N3CCCC(C(=O)N4CCN(c5cccc(Cl)c5)CC4)C3)nn2)CC1 (stereo unspecified)	610 s
Cc1[nH]c(C)c(S(=O)(=O)N2CCC(C(=O)Nc3cc(F)ccc3F)CC2)c1C(=O)N1CCCC1	644 s
O=C(CN1C(=O)C2CCCCN2c2ccc(S(=O)(=O)N3CCCC3)cc21)N1CCCCC1 (stereo unspecified)	872 s
Cc1[nH]nc(-c2c(C)sc(C)c2S(=O)(=O)Nc2cccc(Br)c2)c1C	1130 s
COC(=O)C1=CN(c2cccc(SC)c2)c2cc(F)ccc2S1(=O)=O	925 s
Cc1cc(C(=O)Nc2cccn3c(C4CCC4)nnc23)no1	724 s
COCC1CCN(C(=O)CCC2CCN(c3cc(NC4CC4)ncn3)CC2)CC1	636 s
COc1cccc(CNC(=O)Cn2c(=O)c3cc(C4CC4)nn3c3ncccc32)c1	742 s
CCNC(=O)c1n[nH]c2c1CN(C(=O)c1cc(F)cc(F)c1)CC2	634 s
O=C(c1ccc(C(F)(F)F)s1)N1C[C@@H]2C[C@H]1C[C@@H]2NS(=O)(=O)c1cccs1	813 s
N#CC1=CN(c2ccc(F)c(F)c2)c2ccc(F)cc2S1(=O)=O	934 s
COc1cccc(C(=O)Nc2ccc3c(c2)Sc2ncccc2C(=O)N3C(C)C)c1OC	915 s
Cn1cnc(S(=O)(=O)N2CCC(Oc3ccc(-c4noc(C5CC5)n4)cc3)C2)c1 (stereo unspecified)	788 s
CCOc1ccccc1CN1CCc2nc(N3CCN(c4ccccn4)CC3)ncc2C1	583 s
O=C(C1CCN(c2nnc(-c3ccccc3)o2)CC1)N1CCOCC1	668 s

The next lines start with the values.

RP-LC retention time	SMILES
655 s	O=C(Cc1cccc(Cl)c1)N1CC(n2cnnc2C2CC2)C1
571 s	COCCNC(=O)N1CCC(OC2CCN(Cc3ccccc3)CC2)CC1
709 s	CC(C)CC(=O)Nc1ccc(-n2cnc(C(=O)N3CCSCC3)c2)nc1
775 s	CN(C)CCNC(=O)CN1C(=O)C2CCCCN2c2ccc(S(=O)(=O)N3CCCC3)cc21 (stereo unspecified)
816 s	O=c1n(Cc2ccccc2)nc2n1CCN(S(=O)(=O)Cc1ccccc1)CC2
987 s	Cc1cc(Nc2ccccc2)nn1C(=O)c1ccc([N+](=O)[O-])cc1
1210 s	COc1cccc(-n2c(=O)c(C(=O)NC3CCCC3)c(O)c3cccnc32)c1
964 s	CN1C(=O)c2ccccc2Oc2ccc(C(=O)NCCCc3ccccc3)cc21
682 s	O=C(Cn1nc2c(cc1=O)CCCC2)N[C@@H](Cc1ccccc1)C(=O)O
1080 s	CCOc1ccc(NC(=O)c2cc(S(=O)(=O)N3CCCC(C)C3)cn2C)cc1 (stereo unspecified)
834 s	CCOC(=O)CCC(=O)Nc1ccc(S(=O)(=O)N2CCc3ccccc32)cc1
580 s	Cc1sc2ccn(C)c(=O)c2c1C(=O)NCc1ccc(N2CCCCC2)cc1
730 s	COc1ccc(C2C(C(=O)NC(C)C)c3ccccc3C(=O)N2C)cc1 (stereo unspecified)
801 s	CCCC(=O)Nc1ccc2c(c1)N(C(=O)c1cccs1)CCC2
716 s	Cn1cccc1C(=O)N1CCCC1c1nc(-c2ccccc2)n[nH]1 (stereo unspecified)
728 s	COc1cccc(C(=O)CC2(O)C(=O)Nc3c(C)cccc32)c1 (stereo unspecified)
618 s	CC(C)Cc1nc(C2CN(C(=O)c3cnccn3)CC23CCCC3)no1 (stereo unspecified)
850 s	Cc1ccc2c(c1)C(=O)NC1(CCN(C(=O)Cc3ccc(Cl)cc3)CC1)N2C
853 s	CNC(=O)N1CCCC(c2cccc(C(=O)NCc3ccc(C(F)(F)F)cc3)c2)C1 (stereo unspecified)
819 s	CC(C)CCNC(=O)C12CCCC=C1N(c1ccccc1)C(=O)CC2 (stereo unspecified)
